Structures are written as SMILES. Like-named read-outs stand apart in the source and are kept apart here.

Series [1] concerns SARS-CoV-2. Put plainly: In vivo efficacy against SARS-CoV-2 in Syrian Golden Hamster Model (lung viral load). The settings on record: oral, once daily for 3 days (1-3 DPI), Atovaquone 200 mg/kg, Cepharantine 8 mg/kg, combination 200 + 8 mg/kg. From the text:
In vivo efficacy evaluation of Atovaquone and Cepharanthine alone and in combination against SARS-CoV-2 in Syrian Golden Hamster Model [Study Protocol Reference:) Syrian hamsters as a small animal model for SARS-CoV-2 infection and countermeasure development. Masaki Imai et al., PNAS 2020, 117(28)16587-16595]
Data Analysis One way ANOVA-Dunnett's multiple comparison test

Series [2] deals with SARS-CoV-2. The series is classed as cell-based.
Series [3] deals with Vero E6 cells.
Series [4] concerns Vero E6 cells. Nature of the series: Cytotoxicity of test agents in the Vero E6 checkerboard assay. The settings on record: Experiment 2, highest concentration tested.

For `CCC(CC)COC(=O)[C@H](C)N[P@](=O)(OC[C@H]1O[C@@](C#N)(c2ccc3c(N)ncnn23)[C@H](O)[C@@H]1O)Oc1ccccc1` [Remdesivir], the “Mean Difference (Log10PFU/lung), Infection Control vs. group” value (from here on “Mean Difference (Log10PFU/lung)”) with SARS-CoV-2 [1] is 0.97 Log10PFU/lung.

Take `O=C(Nc1ccc([N+](=O)[O-])cc1Cl)c1cc(Cl)ccc1O` [Niclosamide, niclosamide]: the antiviral efficacy result in the series with SARS-CoV-2 [2] (0.12 to 0.37 micromolar, without the addition of atovaquone) is “inactive”; in the series with SARS-CoV-2 [2] (concentrations ranging from 0.12 to 1,1 micro mol), “non-efficacious”. The “inhibition of virus induced cytopathic effects (CPE)” value (from here on “inhibition”) is given as 11.90% in the series on SARS-CoV-2 [2] (Niclosamide 0.12 micromol alone (Atovaquone 0.00)), 9.52% with SARS-CoV-2 [2] (Niclosamide 0.37 micromol alone (Atovaquone 0.00)) and 16.67% in the series with SARS-CoV-2 [2] (Niclosamide 1.10 micromol alone (Atovaquone 0.00)). The cytotoxicity entry in the series with Vero E6 cells [3] is “non cytotoxic”.

Regarding `O=C1C(O)=C([C@H]2CC[C@H](c3ccc(Cl)cc3)CC2)C(=O)c2ccccc21` [Atovaquone, atovaquone], in the series on SARS-CoV-2 [2] (0.12-0.37, alone), the antiviral efficacy result was “inactive”. Moreover, the “inhibition” value in the series on SARS-CoV-2 [2] (Experiment 1, Atovaquone 0.12 micromol alone (Niclosamide 0.00)) came out at 2.38%; in the series on SARS-CoV-2 [2] (Experiment 1, Atovaquone 0.37 micromol alone (Niclosamide 0.00)), 9.52%; with SARS-CoV-2 [2] (Experiment 1, Atovaquone 1.10 micromol alone (Niclosamide 0.00)), 16.67%; in the series with SARS-CoV-2 [2] (Experiment 1, Atovaquone 3.30 micromol alone (Niclosamide 0.00)), 50.00%; in the series with SARS-CoV-2 [2] (Experiment 2, Atovaquone 0.12 micromol alone (Cepharanthine 0.00)), 2.38%; in the series with SARS-CoV-2 [2] (Experiment 2, Atovaquone 0.37 micromol alone (Cepharanthine 0.00)) it was 9.52%. The “inhibition” value in the series with SARS-CoV-2 [2] (Experiment 2, Atovaquone 1.10 micromol alone (Cepharanthine 0.00)) worked out at 16.67%; in the series with SARS-CoV-2 [2] (Experiment 2, Atovaquone 3.30 micromol alone (Cepharanthine 0.00)), 50.00%. Further, the “inhibits virus induced cytopathic effects (CPE)” value in the series on SARS-CoV-2 [2] (concentration of 3.3 micro mol) was 50%. For the same compound, the “Mean Difference (Log10PFU/lung)” value in the series on SARS-CoV-2 [1] worked out at 0.74 Log10PFU/lung.

Regarding `COc1ccc2cc1Oc1ccc(cc1)C[C@H]1c3c(cc4c(c3Oc3cc5c(cc3OC)CCN(C)[C@@H]5C2)OCO4)CCN1C` [Cepharanthine, cepharantine], the cytotoxicity result in the series with Vero E6 cells [4] is “neither cepharantine nor atovaquone are cytotoxic”. The antiviral efficacy result in the series on SARS-CoV-2 [2] (0.04-0.12 micromole, alone) is “inactive”. Moreover, the “inhibition” value stood at 7.14% with SARS-CoV-2 [2] (Cepharanthine 0.04 micromol alone (Atovaquone 0.00)), 9.52% in the series with SARS-CoV-2 [2] (Cepharanthine 0.12 micromol alone (Atovaquone 0.00)), 14.29% with SARS-CoV-2 [2] (Cepharanthine 0.37 micromol alone (Atovaquone 0.00)) and 38.10% with SARS-CoV-2 [2] (Cepharanthine 1.10 micromol alone (Atovaquone 0.00)). The “Mean Difference (Log10PFU/lung)” value with SARS-CoV-2 [1] was found to be 0.42 Log10PFU/lung.
